Results taken from PubChem BioAssay AID2060492 (Molecular Pharmacology Branch, DTP, NCI, 2025).

System: 695427-040-R-J1-PDC complex spheroids, viability percent T/C
Experiment: Anticancer human tumor 695427-040-R-J1-PDC patient-derived colon adenocarcinoma cell line growth inhibition [GQUAD]
Conditions: for IC50: curve of first compound; for viability, T/C: stronger effect = lower value
Excerpt: DNA G-quadruplex Stabilizer Agents in Combinations in Complex Spheroids
A high-throughput screen of multi-cell type tumor spheroids was designed to identify active combinations of DNA G-quadruplex stabilizer agents and targeted small molecules. Complex spheroids include a stromal component modeled by human endothelial cells (HUVEC) and fibroblasts modeled by human mesenchymal stem cells (MSCs). The concentration ranges selected for each drug and investigational agent were based upon clinically achievable concentrations if the clinical Cmax of the agent was known.
Compounds. The drugs and investigational agents: pidnarulex (CX-5461; NSC782164), APTO-253 (NSC789042), BRACO-19 (NSC847499), peposertib (NSC802822), ceralasertib (NSC780249), elimusertib (NSC800525), camonsertib (NSC841442), AZD-1390 (NSC803789), olaparib (NSC753686), talazoparib (NSC767125), ART-558 (NSC835418), sotorasib (NSC818433), MRTX-1133 (NSC836407), SN-38 (NSC673596), topotecan (NSC609699), etoposide (NSC141540), doxorubicin (NSC123127), gemcitabine (NSC613327), 5-fluorouracil (NSC19893), paclitaxel (NSC125973), vemurafenib (NSC761431), panobinostat (NSC761190), R-306465 (JNJ-16241199; NSC773264), adavosertib (NSC754352), TP-3654 (NSC805149), carboplatin (NSC241240), KSQ-4279 (NSC840948), and staurosporine (NSC755774) were obtained from the National Cancer Institute (NCI) Developmental Therapeutics Program Chemical Repository (34). The FDA-approved anticancer drug set is available from the NCI Developmental Therapeutics Program. […] The stock solutions were prepared in dimethyl sulfoxide (DMSO, Sigma-Aldrich, St. Louis, MO, cat. D2650) at 800-fold the tested concentration and stored at -70 degrees C prior to their use. All drugs and investigational agents were tested over a range starting from a high concentration at or near the clinical Cmax and decreasing in half-log increments. If the clinical Cmax for an agent had not been determined, the highest concentration tested was 10 microM.
2.3 Cell Culture. All cells were maintained in an incubator at 37 degrees C and 5% CO2 with 95% humidity. The PDC lines were cultured according to standard operating procedures established by the NCI PDMR. All PDCs were thawed and cultured in Matrigel-coated flasks prepared with a working solution of 1X Ham's F-12 nutrient mix, without supplementation (Invitrogen, cat. 11765054), 100 U/mL penicillin-streptomycin (Invitrogen, cat. 15140122), and 2.5% Matrigel (Corning Inc., cat. 354248) for the first three passages. The 857933-349-R-J2-PDC line was cultured in 6C/Colon 1B media, which includes advanced DMEM/F-12 (Thermo Fisher Scientific, cat. 12634028), 10 mM HEPES (Thermo Fisher Scientific, cat. 15630080), 1X GlutaMAX supplement (Thermo Fisher Scientific, cat. 35050061), 0.1 mg/mL primocin (InvivoGen, cat. ant-pm-2), 10% defined fetal bovine serum, heat inactivated (HyClone Laboratories Inc., cat. SH30070.03HI), 50% L-WRN conditioned media (ATCC, cat. CRL-3276), 1.25 mM N-Acetyl-L-cysteine (Sigma-Aldrich, cat. A9165), 10 mM nicotinamide (Sigma-Aldrich, cat. N0636), 1X B-27 supplement (Thermo Fisher Scientific, cat. 17504044), 1X N-2 supplement (Thermo Fisher Scientific, cat. 17502048), 10 microM Y-27632 dihydrochloride (Tocris Bioscience, cat. 1254), and 50 ng/mL human EGF recombinant protein (Thermo Fisher Scientific, cat. PHG0311). The 485176-168-R4-J1-PDC line was cultured in Panc media, which includes all 6C/Colon 1B media components plus 100 ng/mL human FGF-10 (Thermo Fisher Scientific, cat. 100-26), 500 nM SB-431542 (Selleckchem, cat. S1067), and gastrin (Tocris, cat. 3006).
[…]

[1] = second compound 0.0316 µM, first compound 0.0316 µM
[2] = second compound 0.0316 µM, first compound 0.1 µM
[3] = second compound 0.0316 µM, first compound 0.316 µM
[4] = second compound 0.0316 µM, first compound 1 µM
[5] = second compound 0.0316 µM, first compound 3.16 µM
[6] = second compound 0.0316 µM, first compound 10 µM
[7] = second compound 0.1 µM, first compound 0.0316 µM
[8] = second compound 0.1 µM, first compound 0.1 µM
[9] = second compound 0.1 µM, first compound 0.316 µM
[10] = second compound 0.1 µM, first compound 1 µM
[11] = second compound 0.1 µM, first compound 3.16 µM
[12] = second compound 0.1 µM, first compound 10 µM
[13] = second compound 0.316 µM, first compound 0.0316 µM
[14] = second compound 0.316 µM, first compound 0.1 µM
[15] = second compound 0.316 µM, first compound 0.316 µM
[16] = second compound 0.316 µM, first compound 1 µM
[17] = second compound 0.316 µM, first compound 3.16 µM
[18] = second compound 0.316 µM, first compound 10 µM
[19] = second compound 1 µM, first compound 0.0316 µM
[20] = second compound 1 µM, first compound 0.1 µM
[21] = second compound 1 µM, first compound 0.316 µM
[22] = second compound 1 µM, first compound 1 µM
[23] = second compound 1 µM, first compound 3.16 µM
[24] = second compound 1 µM, first compound 10 µM
[25] = second compound 3.16 µM, first compound 0.0316 µM
[26] = second compound 3.16 µM, first compound 0.1 µM
[27] = second compound 3.16 µM, first compound 0.316 µM
[28] = second compound 3.16 µM, first compound 1 µM
[29] = second compound 3.16 µM, first compound 3.16 µM
[30] = second compound 3.16 µM, first compound 10 µM
[31] = second compound 10 µM, first compound 0.0316 µM
[32] = second compound 10 µM, first compound 0.1 µM
[33] = second compound 10 µM, first compound 0.316 µM
[34] = second compound 10 µM, first compound 1 µM
[35] = second compound 10 µM, first compound 3.16 µM
[36] = second compound 10 µM, first compound 10 µM
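Also: spheroids exposed to compounds for seven days before readout.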

CC1COCCN1c1cc(C2(O)CC3CCC(C2)O3)c2cnn(-c3ccn[nH]3)c2n1 (centres undefined) + CN(C)c1ccc(Nc2c3ccc(NC(=O)CCN4CCCC4)cc3nc3cc(NC(=O)CCN4CCCC4)ccc23)cc1
IC50 (second compound 0.0316 µM): 2.3 µM | IC50 (second compound 0.1 µM): 2.04 µM | IC50 (second compound 0.316 µM): 2.01 µM | IC50 (second compound 1 µM): 2.27 µM | IC50 (second compound 3.16 µM): 1.54 µM | IC50 (second compound 10 µM): 0.873 µM | viability, T/C [1]: 105% | viability, T/C [2]: 79.7% | viability, T/C [3]: 73.6% | viability, T/C [4]: 55.5% | viability, T/C [5]: 48% | viability, T/C [6]: 39.6% | viability, T/C [7]: 100% | viability, T/C [8]: 81.9% | viability, T/C [9]: 69.4% | viability, T/C [10]: 57.2% | viability, T/C [11]: 45.4% | viability, T/C [12]: 38.1% | viability, T/C [13]: 89.3% | viability, T/C [14]: 87.1% | viability, T/C [15]: 70.3% | viability, T/C [16]: 57.4% | viability, T/C [17]: 46.4% | viability, T/C [18]: 39% | viability, T/C [19]: 91.3% | viability, T/C [20]: 80.7% | viability, T/C [21]: 67.1% | viability, T/C [22]: 53.9% | viability, T/C [23]: 50.9% | viability, T/C [24]: 38.6% | viability, T/C [25]: 81.9% | viability, T/C [26]: 78.1% | viability, T/C [27]: 69.9% | viability, T/C [28]: 51.8% | viability, T/C [29]: 46.1% | viability, T/C [30]: 37.5% | viability, T/C [31]: 83.9% | viability, T/C [32]: 78.2% | viability, T/C [33]: 66.9% | viability, T/C [34]: 46.4% | viability, T/C [35]: 41.2% | viability, T/C [36]: 35.5%

COc1ccc([C@@H](O)c2cc(-c3ncnc4cc(N5CCOCC5)ccc34)c(F)cc2Cl)nn1 + CN(C)c1ccc(Nc2c3ccc(NC(=O)CCN4CCCC4)cc3nc3cc(NC(=O)CCN4CCCC4)ccc23)cc1
IC50 (second compound 0.0316 µM): 8.39 µM | IC50 (second compound 0.1 µM): > 10 µM | IC50 (second compound 0.316 µM): 9.75 µM | IC50 (second compound 1 µM): 8.02 µM | IC50 (second compound 3.16 µM): 8.26 µM | IC50 (second compound 10 µM): 6.96 µM | viability, T/C [1]: 97.4% | viability, T/C [2]: 98.5% | viability, T/C [3]: 94.6% | viability, T/C [4]: 87.2% | viability, T/C [5]: 67.2% | viability, T/C [6]: 46.9% | viability, T/C [7]: 99.3% | viability, T/C [8]: 101% | viability, T/C [9]: 89.4% | viability, T/C [10]: 81.2% | viability, T/C [11]: 72.9% | viability, T/C [12]: 50% | viability, T/C [13]: 97.2% | viability, T/C [14]: 96.7% | viability, T/C [15]: 89.3% | viability, T/C [16]: 82.3% | viability, T/C [17]: 68.5% | viability, T/C [18]: 49.3% | viability, T/C [19]: 93.6% | viability, T/C [20]: 103% | viability, T/C [21]: 100% | viability, T/C [22]: 79% | viability, T/C [23]: 74.3% | viability, T/C [24]: 44.4% | viability, T/C [25]: 102% | viability, T/C [26]: 96.4% | viability, T/C [27]: 98.7% | viability, T/C [28]: 83.3% | viability, T/C [29]: 68.4% | viability, T/C [30]: 46.3% | viability, T/C [31]: 88.8% | viability, T/C [32]: 77.3% | viability, T/C [33]: 90.5% | viability, T/C [34]: 72.8% | viability, T/C [35]: 63.8% | viability, T/C [36]: 44%
